Results published in patent US10011568B2, “Cyclohexyl pyridine derivative” (priority 2014, dated 2018).

Assays:
[1] = biological target: hERG channel (Homo sapiens (Human), UniProt Q12809); assay: Evaluation of hERG current (whole-cell patch clamp); assay type: cell-based; conditions: 10 μM, application for 10 minutes, HEK293 cells, n = 3, average ± standard error
Description: Evaluation of hERG Current
A dimethyl sulfoxide (DMSO) solution of the test compound with a concentration 1000 times higher than the evaluation concentration (10 μM) was prepared, and a solution with a final application concentration was prepared by diluting the solution. The hERG current was measured by a whole-cell method using a patch clamp system, where a cover glass on which hERG channel-expressing human embryonic kidney (HEK) 293 cells were seeded was placed on a perfusion bath and a perfusion solution was caused to flow. The change in the hERG channel-derived current caused by a pulse protocol (holding potential of −80 mV, depolarization pulse of +20 mV for 1.9 seconds, repolarization pulse of −50 mV for 2 seconds, stimulated at intervals of 15 seconds) of data acquisition/analysis software, pCLAMP9 (Axon instruments. Inc.) was measured. The measurement conditions were a flow rate of about 1.5 mL/min and a temperature of about 33° C. Two wave forms immediately before applying the test compound and two wave forms immediately after the application for 10 minutes were analyzed, and the statistical analysis was performed. The value before the application of the test compound was regarded as 100%, and the change rate based on the value was determined.
In the table, Ex. No. means the Example number, and the change rate is the average±the standard error.

[2] = biological target: human NK1 receptor (Homo sapiens (Human), UniProt P25103); assay: Inhibitory effect on human NK1 receptor (substance P-induced increase in intracellular calcium concentration); assay type: cell-based; conditions: substance P 1 μM, compound 0.1 μM; read-out: SPRR (%), Substance P-Response Remaining (intracellular calcium concentration)
Description: Inhibitory Effect on Human NK1 Receptor
(1) Preparation of Human NK1 Receptor-Expressing Cells
Human NK1 receptor-expressing cells were prepared by the same methods as those described in 2-3 of Test Example 1.
(2) Study on Inhibitory Effect on Increase in Intracellular Calcium Concentration
The human NK1 receptor-expressing cells were washed with 300 μL/well of a washing solution (20 mM HEPES/Hank's Balanced Salt Solution (HBSS) pH 7.3). A fluorescent calcium indicator (Fluo-4 Direct Calcium Assay Kit, Life Technologies, containing 0.42 mM probenecid and 0.1% bovine serum albumin, prepared according to the protocol of the product) was added to the wells at 150 μL/well, and the plate was incubated at 37° C. for 30 minutes in an incubator. Then. DMSO solutions of a test compound, which were prepared at an 80-time higher concentration using 100% dimethyl sulfoxide (DMSO), were added to the wells at 2.5 μL/well (final concentrations of 0.1, 1 and 10 μM), and the solutions were mixed. Then, the plate was further incubated at […] for 30 minutes in an incubator. After 30 minutes, the intracellular calcium concentrations were measured immediately.
The intracellular calcium concentrations were each measured as a fluorescent signal using FDSS (registered trademark) 7000 (Hamamatsu Photonics). A substance P (Peptide Institute. Inc.) solution which was prepared at 0.4 μM or 4 μM using an assay buffer (20 mM HEPES/Hank's Balanced Salt Solution (HBSS) pH 7.3, containing 0.1% bovine serum albumin) was added automatically to each well at 50 μL/well (final concentration of 0.1 or 1 μM) 10 seconds after starting reading, and the fluorescent signal was measured up to 120 seconds.
The intracellular calcium concentration (%) of the cells to which a test compound was added was calculated by the equation below, where the fluorescent signal of the group to which the vehicle (DMSO) was added was regarded as 100%, and the fluorescent signal before the addition of substance P was regarded as 0%. Intracellular calcium concentration (%)—(Fluorescent signal of test compound addition group)/(Fluorescent signal of vehicle addition group)×100
The intracellular calcium concentration (%) calculated was regarded as the remaining agonist activity of substance P (Substance P-Response Remaining: SPRR). In the table, Ex. No. means the Example number. SPRR (%) is the value obtained when the concentration of substance P was 1 μM and the concentration of the compound was 0.1 μM.

[3] = biological target: NK1 receptor (Meriones unguiculatus (Mongolian jird) (Gerbillus unguiculatus), UniProt Q5DUB1); assay: Effect on foot-tapping induced by NK1 receptor agonist GR73632; assay type: in vivo; conditions: male gerbil, 0.1 mg/kg iv, GR73632 after four hours
Description: (1) Effect on Foot-Tapping
The test compound solution was prepared by dissolving the test compound in a vehicle (a mixture of 50% N,N-dimethylacetamide (Wako Pure Chemical Industries), 30% propylene glycol (Wako Pure Chemical Industries). 4% 2-hydroxypropyl-β-cyclodextrin (Wako Pure Chemical Industries) and 16% distilled water).
(§1) A male gerbil (Japan SLC) was anesthetized with isoflurane, and 0.1 mg/kg of a test compound was administered from the jugular vein. After four hours. GR73632 (5 pmol/5 μl saline), which is an NK1 receptor agonist, was administered into the cerebral ventricle at the part 1 mm lateral to and 4.5 mm below the bregma in the head, under anesthesia with isoflurane. After the administration, the gerbil was moved to an observation cage, and the foot-tapping period during 30 minutes after the recovery of the righting reflex was measured. The foot-tapping inhibition rate (%) of each test compound was calculated by the following equation. Foot-tapping inhibition rate (%)−{1−(Fool-tapping period when test compound was administered)/(Foot-tapping period when solvent was administered)}×100 (2) Measurement of Drug Concentrations
(§2) In the table, Ex. No. means the Example number. Inhibition (%) is the loot-tapping inhibition rate, and Cone. (nM) is the drug concentration in the brain.

[4] = Measurement of drug concentrations in the brain after foot-tapping; assay type: in vivo; conditions: male gerbil, 0.1 mg/kg iv, after foot-tapping was finished
Description: as §1
After foot-tapping was finished, laparotomy was performed immediately under anesthesia with ether, and a blood sample was taken from the abdominal vena cava. At the same lime, the brain was extracted. Through a quantitative analysis using liquid chromatography-mass spectrometry (LC/MS), the concentrations of the test compound in the plasma and the brain were measured.
as §2

[5] = system: cisplatin-induced retching and vomiting; assay: Effect on cisplatin-induced acute and delayed emetic response; assay type: in vivo; conditions: ferret, 0.01 or 0.1 mg/kg iv
Description: The vertical axes show the number of retching and vomiting (Retches+Vomits) (the mean+standard error of 3 examples of control group, the mean+standard error of 3 examples of the group intravenously administered with 0.01 mg/kg, and the mean+standard error of 3 examples of the group intravenously administered with 0.1 mg/kg).
Effect on Cisplatin-Induced Acute and Delayed Emetic Response
The test compound solution was prepared by dissolving the test compound in a vehicle (a mixture of 50% N,N-dimetlylacetamide (Wako Pure Chemical Industries). 30% propylene glycol (Wako Pure Chemical Industries), 4% 2-hydroxypropy-β-cyclodextrin (Wako Pure Chemical Industries) and 16% distilled water). The vehicle only was administered to the control group.
Under anesthesia with isoflurane, 0.01 mg/kg or 0.1 mg/kg of the test compound was intravenously administered to a male ferret (Marshall BioResources Japan) from the jugular vein. Cisplatin in saline, which was heated to 40-50° C., was intraperitoneally administered at 5 mg/kg one hour after the drug administration.

NK1 receptor, sequence (Q5DUB1 whole entry): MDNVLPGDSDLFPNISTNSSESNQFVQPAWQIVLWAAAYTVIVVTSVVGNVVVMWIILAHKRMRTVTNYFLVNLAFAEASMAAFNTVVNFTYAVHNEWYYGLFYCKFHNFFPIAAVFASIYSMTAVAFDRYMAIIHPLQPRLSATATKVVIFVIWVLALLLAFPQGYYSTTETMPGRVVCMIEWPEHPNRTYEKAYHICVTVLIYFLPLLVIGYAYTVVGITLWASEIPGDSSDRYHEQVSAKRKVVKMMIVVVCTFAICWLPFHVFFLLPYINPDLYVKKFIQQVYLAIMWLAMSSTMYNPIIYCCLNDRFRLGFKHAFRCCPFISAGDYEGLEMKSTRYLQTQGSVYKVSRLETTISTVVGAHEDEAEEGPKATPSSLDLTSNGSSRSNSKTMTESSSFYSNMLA
hERG channel, sequence (Q12809 whole entry): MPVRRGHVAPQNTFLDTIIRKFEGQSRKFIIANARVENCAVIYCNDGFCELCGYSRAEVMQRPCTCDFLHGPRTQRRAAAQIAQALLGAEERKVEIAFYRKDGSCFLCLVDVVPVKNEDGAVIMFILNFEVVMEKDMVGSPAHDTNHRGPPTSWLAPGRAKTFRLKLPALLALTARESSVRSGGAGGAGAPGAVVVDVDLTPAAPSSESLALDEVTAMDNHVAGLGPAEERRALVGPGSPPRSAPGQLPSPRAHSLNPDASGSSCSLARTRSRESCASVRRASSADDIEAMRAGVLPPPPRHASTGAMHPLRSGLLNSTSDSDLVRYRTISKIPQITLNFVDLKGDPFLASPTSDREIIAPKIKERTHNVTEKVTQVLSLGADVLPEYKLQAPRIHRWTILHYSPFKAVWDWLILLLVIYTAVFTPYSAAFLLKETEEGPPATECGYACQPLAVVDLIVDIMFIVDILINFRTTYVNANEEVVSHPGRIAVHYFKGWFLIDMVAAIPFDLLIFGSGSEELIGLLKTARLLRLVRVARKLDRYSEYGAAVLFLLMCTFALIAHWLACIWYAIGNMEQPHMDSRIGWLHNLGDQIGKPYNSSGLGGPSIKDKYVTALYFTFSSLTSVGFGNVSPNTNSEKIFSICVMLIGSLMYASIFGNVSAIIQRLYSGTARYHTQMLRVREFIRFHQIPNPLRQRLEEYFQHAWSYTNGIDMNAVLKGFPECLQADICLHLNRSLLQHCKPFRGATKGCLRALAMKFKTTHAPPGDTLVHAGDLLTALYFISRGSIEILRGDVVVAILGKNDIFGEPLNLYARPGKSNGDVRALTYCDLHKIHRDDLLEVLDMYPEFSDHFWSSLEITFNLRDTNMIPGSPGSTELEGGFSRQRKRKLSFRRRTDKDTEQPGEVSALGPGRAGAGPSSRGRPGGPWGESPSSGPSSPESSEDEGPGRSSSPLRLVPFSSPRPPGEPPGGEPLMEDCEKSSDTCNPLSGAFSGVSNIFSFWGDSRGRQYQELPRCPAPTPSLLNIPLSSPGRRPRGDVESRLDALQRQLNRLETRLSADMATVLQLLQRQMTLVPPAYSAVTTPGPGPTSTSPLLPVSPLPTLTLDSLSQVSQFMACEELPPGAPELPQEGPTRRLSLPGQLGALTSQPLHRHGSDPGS
human NK1 receptor, sequence (P25103 whole entry): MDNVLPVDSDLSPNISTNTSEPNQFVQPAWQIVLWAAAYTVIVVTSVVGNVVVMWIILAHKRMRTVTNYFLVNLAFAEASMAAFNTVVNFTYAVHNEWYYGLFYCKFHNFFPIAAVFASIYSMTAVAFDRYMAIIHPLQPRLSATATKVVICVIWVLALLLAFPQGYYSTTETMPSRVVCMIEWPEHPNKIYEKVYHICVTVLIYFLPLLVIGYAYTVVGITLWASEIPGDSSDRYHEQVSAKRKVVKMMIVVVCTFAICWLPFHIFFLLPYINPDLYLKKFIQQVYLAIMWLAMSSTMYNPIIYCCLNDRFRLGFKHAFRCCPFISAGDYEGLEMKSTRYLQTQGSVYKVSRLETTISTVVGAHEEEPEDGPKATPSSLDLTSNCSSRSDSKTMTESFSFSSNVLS

remaining activity at 0.1 µM [2]: 5.1%
Inhibition (%), foot-tapping inhibition rate [3]: 100%
Conc. (nM), drug concentration in the brain [4]: 51 nM
Compound: Cc1cc(F)ccc1-c1cc([C@H]2CC[C@H](CC(=O)O)CC2)ncc1N(C)C(=O)C(C)(C)c1cc(C(F)(F)F)cc(C(F)(F)F)c1 [Example 13, trans-{4-[5-{[2-(3,5-Bistrifluoromethylphenyl)-2-methylpropionyl]methylamino}-4-(4-fluoro-2-methylphenyl)pyridin-2-yl]cyclohexyl}acetic acid]
hERG current change rate % (value before application = 100%) [1]: 81.1 ± 5.6%
number of retching and vomiting, delayed phase ([5]; 24 hours to 72 hours after cisplatin 5 mg/kg ip): the inhibition of the number of retching and vomiting was observed
number of retching and vomiting, acute phase ([5]; up to 24 hours after cisplatin 5 mg/kg ip): the inhibition of the number of retching and vomiting was observed
